20 compounds from US11820766B2, “Monoacylglycerol lipase modulators” (Janssen Pharmaceutica NV, priority 2018, dated 2023) can be followed below.

pIC50: −log10 of the molar value.

For the assay, the target named is T1, human MGL from HeLa cells (Homo sapiens, UniProt Q99685).
T1 construct: combining endogenously expressed MGL from HeLa cells with test compounds; endogenous in cells; host or cells: HeLa cells / cell homogenates
T1 sequence (Q99685 1-303): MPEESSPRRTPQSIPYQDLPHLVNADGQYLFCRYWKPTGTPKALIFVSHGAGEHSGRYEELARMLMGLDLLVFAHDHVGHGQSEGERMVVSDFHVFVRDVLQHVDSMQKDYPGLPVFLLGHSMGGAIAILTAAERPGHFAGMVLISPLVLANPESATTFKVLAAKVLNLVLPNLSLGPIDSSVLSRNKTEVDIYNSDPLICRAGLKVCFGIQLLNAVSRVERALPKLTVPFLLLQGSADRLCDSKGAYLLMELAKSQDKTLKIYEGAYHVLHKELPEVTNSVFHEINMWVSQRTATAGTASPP
As to the kind of experiment: In vitro MGL activity assay: [glycerol-1,3-3H]-oleyl glycerol cleavage by MGL from HeLa cells. The class given is biochemical. As to conditions: 300 nM [Glycerol-1,3-3H]-oleyl glycerol, one hour incubation. The text has this: MGL is the predominant hydrolase in HeLa cells/cell homogenates.
Turning to `C[C@H]1c2nn(C)c(-c3cc(F)c(F)c(F)c3)c2CCN1C(=O)c1cccc(F)c1-n1nccn1` [Example 195, (S)-(2,7-Dimethyl-3-(3,4,5-trifluorophenyl)-2,4,5,7-tetrahydro-6H-pyrazolo[3,4-c]pyridin-6-yl)(3-fluoro-2-(2H-1,2,3-triazol-2-yl)phenyl)methanone], the pIC50 is 6.51.

As to `C[C@H]1c2nn(C)c(-c3cc(F)c(F)c(F)c3)c2CCN1C(=O)c1ccc(F)cc1-n1nccn1` [Example 196, (S)-(2,7-Dimethyl-3-(3,4,5-trifluorophenyl)-2,4,5,7-tetrahydro-6H-pyrazolo[3,4-c]pyridin-6-yl)(4-fluoro-2-(2H-1,2,3-triazol-2-yl)phenyl)methanone], the pIC50 is 6.51.

In the case of `Cc1ccc(-n2nccn2)c(C(=O)N2CCc3c(nn(C)c3-c3cc(F)c(F)c(F)c3)[C@@H]2C)c1` [Example 197, (S)-(2,7-Dimethyl-3-(3,4,5-trifluorophenyl)-2,4,5,7-tetrahydro-6H-pyrazolo[3,4-c]pyridin-6-yl)(5-methyl-2-(2H-1,2,3-triazol-2-yl)phenyl)methanone], the pIC50 is 7.22.

`C[C@H]1c2nn(C)c(-c3cc(F)c(F)c(F)c3)c2CCN1C(=O)c1cnn(C)c1C(F)(F)F` [Example 198, (S)-(2,7-Dimethyl-3-(3,4,5-trifluorophenyl)-2,4,5,7-tetrahydro-6H-pyrazolo[3,4-c]pyridin-6-yl)(1-methyl-5-(trifluoromethyl)-1H-pyrazol-4-yl)methanone] showed a pIC50 of 7.85. This pIC50 is 0.63 log units higher than that of the compound before.

In turn, `C[C@H]1c2nn(C)c(-c3cc(F)c(F)c(F)c3)c2CCN1C(=O)c1cnn(C(C)(C)C)c1C(F)(F)F` [Example 199, (S)-(1-(tert-Butyl)-5-(trifluoromethyl)-1H-pyrazol-4-yl)(2,7-dimethyl-3-(3,4,5-trifluorophenyl)-2,4,5,7-tetrahydro-6H-pyrazolo[3,4-c]pyridin-6-yl)methanone] had a negative-log IC50 (pIC50) of 6.77.

`COc1cc(C(=O)N2CCc3c(nn(C)c3-c3cc(F)c(F)c(F)c3)[C@@H]2C)nn1C` [Example 200, (S)-(2,7-Dimethyl-3-(3,4,5-trifluorophenyl)-2,4,5,7-tetrahydro-6H-pyrazolo[3,4-c]pyridin-6-yl)(5-methoxy-1-methyl-1H-pyrazol-3-yl)methanone]: the pIC50 is 6.53.

On to `C[C@H]1c2nn(C)c(-c3cc(F)c(F)c(F)c3)c2CCN1C(=O)c1cnn(C)c1C1CC1` [Example 201, (S)-(5-Cyclopropyl-1-methyl-1H-pyrazol-4-yl)(2,7-dimethyl-3-(3,4,5-trifluorophenyl)-2,4,5,7-tetrahydro-6H-pyrazolo[3,4-c]pyridin-6-yl)methanone], for which the pIC50 was 8.20.

Regarding `CCc1nc(C(=O)N2CCc3c(nn(C)c3-c3cc(F)c(F)c(F)c3)[C@@H]2C)nn1-c1ccccc1` [Example 202, (S)-(2,7-Dimethyl-3-(3,4,5-trifluorophenyl)-2,4,5,7-tetrahydro-6H-pyrazolo[3,4-c]pyridin-6-yl)(5-ethyl-1-phenyl-1H-1,2,4-triazol-3-yl)methanone], the pIC50 was 8.13.

As to `COc1cncc(C(=O)N2CCc3c(nn(C)c3-c3cc(F)c(F)c(F)c3)[C@@H]2C)c1` [Example 203, (S)-(2,7-Dimethyl-3-(3,4,5-trifluorophenyl)-2,4,5,7-tetrahydro-6H-pyrazolo[3,4-c]pyridin-6-yl)(5-methoxypyridin-3-yl)methanone], the pIC50 was 7.17.

`C[C@H]1c2nn(C)c(-c3cc(F)c(F)c(F)c3)c2CCN1C(=O)c1ccc2c(c1)N(C)C(=O)CO2` [Example 204, (S)-6-(2,7-Dimethyl-3-(3,4,5-trifluorophenyl)-4,5,6,7-tetrahydro-2H-pyrazolo[3,4-c]pyridine-6-carbonyl)-4-methyl-2H-benzo[b][1,4]oxazin-3(4H)-one] showed a pIC50 of 7.75.

The compound `C[C@H]1c2nn(C)c(-c3cc(F)c(F)c(F)c3)c2CCN1C(=O)c1cccc2cc[nH]c12` [Example 205, (S)-(2,7-Dimethyl-3-(3,4,5-trifluorophenyl)-2,4,5,7-tetrahydro-6H-pyrazolo[3,4-c]pyridin-6-yl)(1H-indol-7-yl)methanone] showed a pIC50 of 7.48. This pIC50 is 0.27 log units lower than that of the compound before.

With `C[C@H]1c2nn(C)c(-c3cc(F)c(F)c(F)c3)c2CCN1C(=O)c1cccc2ccn(C)c12` [Example 206, (S)-(2,7-Dimethyl-3-(3,4,5-trifluorophenyl)-2,4,5,7-tetrahydro-6H-pyrazolo[3,4-c]pyridin-6-yl)(1-methyl-1H-indol-7-yl)methanone], the pIC50 was 8.31.

In turn, `C[C@H]1c2nn(C)c(-c3cc(F)c(F)c(F)c3)c2CCN1C(=O)c1cccc2c1ccn2C` [Example 207, (S)-(2,7-dimethyl-3-(3,4,5-trifluorophenyl)-2,4,5,7-tetrahydro-6H-pyrazolo[3,4-c]pyridin-6-yl)(1-methyl-1H-indol-4-yl)methanone] gave a pIC50 of 9.66.

`C[C@H]1c2nn(C)c(-c3cc(F)c(F)c(F)c3)c2CCN1C(=O)c1cccc2cn[nH]c12` [Example 208, (S)-(2,7-Dimethyl-3-(3,4,5-trifluorophenyl)-2,4,5,7-tetrahydro-6H-pyrazolo[3,4-c]pyridin-6-yl)(1H-indazol-7-yl)methanone]: the negative-log IC50 (pIC50) was 7.47.

Consider `C[C@H]1c2nn(C)c(-c3cc(F)c(F)c(F)c3)c2CCN1C(=O)c1cccc2cnn(C)c12` [Example 209, (S)-(2,7-Dimethyl-3-(3,4,5-trifluorophenyl)-2,4,5,7-tetrahydro-6H-pyrazolo[3,4-c]pyridin-6-yl)(1-methyl-1H-indazol-7-yl)methanone], for which the pIC50 is 7.96. Compared with the last compound, the pIC50 is 0.49 log units higher.

With `Cc1cc(C(=O)N2CCc3c(nn(C)c3-c3cc(F)c(F)c(F)c3)[C@@H]2C)cc2cn[nH]c12` [Example 210, (S)-(2,7-Dimethyl-3-(3,4,5-trifluorophenyl)-2,4,5,7-tetrahydro-6H-pyrazolo[3,4-c]pyridin-6-yl)(7-methyl-1H-indazol-5-yl)methanone], the pIC50 is 9.22. This pIC50 is 1.26 log units higher than that of the compound before.

`C[C@H]1c2nn(C)c(-c3cc(F)c(F)c(F)c3)c2CCN1C(=O)c1ccc2c(cnn2C)c1` [Example 211, (S)-(2,7-Dimethyl-3-(3,4,5-trifluorophenyl)-2,4,5,7-tetrahydro-6H-pyrazolo[3,4-c]pyridin-6-yl)(1-methyl-1H-indazol-5-yl)methanone] showed a pIC50 of 7.14.

As to `C[C@H]1c2nn(C)c(-c3cc(F)c(F)c(F)c3)c2CCN1C(=O)c1cccn2cncc12` [Example 212, (S)-(2,7-Dimethyl-3-(3,4,5-trifluorophenyl)-2,4,5,7-tetrahydro-6H-pyrazolo[3,4-c]pyridin-6-yl)(imidazo[1,5-a]pyridin-8-yl)methanone], the pIC50 is 8.25. This pIC50 lies 1.11 log units higher than the previous one.

Compound `C[C@H]1c2nn(C)c(-c3cc(F)c(F)c(F)c3)c2CCN1C(=O)c1cnc2ccccn12` [Example 213, (S)-(2,7-Dimethyl-3-(3,4,5-trifluorophenyl)-2,4,5,7-tetrahydro-6H-pyrazolo[3,4-c]pyridin-6-yl)(imidazo[1,2-a]pyridin-3-yl)methanone] gave a pIC50 of 7.59.

Compound `C[C@H]1c2nn(C)c(-c3cc(F)c(F)c(F)c3)c2CCN1C(=O)c1nccc2occc12` [Example 214, (S)-(2,7-Dimethyl-3-(3,4,5-trifluorophenyl)-2,4,5,7-tetrahydro-6H-pyrazolo[3,4-c]pyridin-6-yl)(furo[3,2-c]pyridin-4-yl)methanone] had a pIC50 of 7.63.
